Results from patent US10794932B2, “Biosensor for the detection of a biological target, and method for manufacturing the same” (The Governing Council of The University of Toronto, priority 2016, dated 2020).

Key:
Type in all cases: binding
rmTLR3 = molecular target: T1, rmTLR3 (Mus musculus, UniProt Q99MB1); experiment: Selectivity test, TLR3 sensor, EIS; conditions: 10 μM
T1 construct: purchased
T1 sequence (Q99MB1 26-905): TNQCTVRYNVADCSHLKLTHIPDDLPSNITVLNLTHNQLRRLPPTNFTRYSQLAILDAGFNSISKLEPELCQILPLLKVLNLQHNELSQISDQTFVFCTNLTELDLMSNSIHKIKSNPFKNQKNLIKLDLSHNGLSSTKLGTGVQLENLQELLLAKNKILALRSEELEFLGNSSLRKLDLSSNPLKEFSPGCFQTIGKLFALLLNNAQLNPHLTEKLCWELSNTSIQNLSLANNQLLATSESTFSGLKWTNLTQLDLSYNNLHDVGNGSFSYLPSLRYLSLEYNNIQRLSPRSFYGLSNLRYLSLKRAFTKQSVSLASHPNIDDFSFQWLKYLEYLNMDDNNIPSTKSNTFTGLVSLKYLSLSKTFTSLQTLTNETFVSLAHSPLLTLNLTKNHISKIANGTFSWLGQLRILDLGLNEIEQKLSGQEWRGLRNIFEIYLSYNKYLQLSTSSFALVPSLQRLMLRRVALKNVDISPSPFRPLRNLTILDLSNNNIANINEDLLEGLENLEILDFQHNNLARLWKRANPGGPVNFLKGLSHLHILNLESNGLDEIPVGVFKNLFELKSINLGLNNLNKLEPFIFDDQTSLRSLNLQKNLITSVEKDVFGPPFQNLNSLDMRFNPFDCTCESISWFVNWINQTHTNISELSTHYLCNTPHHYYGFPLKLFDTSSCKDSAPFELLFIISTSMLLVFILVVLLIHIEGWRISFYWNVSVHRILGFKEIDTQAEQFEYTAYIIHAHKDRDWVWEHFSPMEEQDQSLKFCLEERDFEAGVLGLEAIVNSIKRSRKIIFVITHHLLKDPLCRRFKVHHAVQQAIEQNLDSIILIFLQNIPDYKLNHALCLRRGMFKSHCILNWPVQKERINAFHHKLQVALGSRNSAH

rmTLR4/MD-2 = molecular target: T2, rmTLR4/MD-2 (Mus musculus, UniProt Q9JHF9+Q9QUK6); experiment: Selectivity test, TLR4/MD-2 sensor, EIS; conditions: 10 μM
T2 construct: purchased
T2 sequence (Q9QUK6 26-638 limits assumed): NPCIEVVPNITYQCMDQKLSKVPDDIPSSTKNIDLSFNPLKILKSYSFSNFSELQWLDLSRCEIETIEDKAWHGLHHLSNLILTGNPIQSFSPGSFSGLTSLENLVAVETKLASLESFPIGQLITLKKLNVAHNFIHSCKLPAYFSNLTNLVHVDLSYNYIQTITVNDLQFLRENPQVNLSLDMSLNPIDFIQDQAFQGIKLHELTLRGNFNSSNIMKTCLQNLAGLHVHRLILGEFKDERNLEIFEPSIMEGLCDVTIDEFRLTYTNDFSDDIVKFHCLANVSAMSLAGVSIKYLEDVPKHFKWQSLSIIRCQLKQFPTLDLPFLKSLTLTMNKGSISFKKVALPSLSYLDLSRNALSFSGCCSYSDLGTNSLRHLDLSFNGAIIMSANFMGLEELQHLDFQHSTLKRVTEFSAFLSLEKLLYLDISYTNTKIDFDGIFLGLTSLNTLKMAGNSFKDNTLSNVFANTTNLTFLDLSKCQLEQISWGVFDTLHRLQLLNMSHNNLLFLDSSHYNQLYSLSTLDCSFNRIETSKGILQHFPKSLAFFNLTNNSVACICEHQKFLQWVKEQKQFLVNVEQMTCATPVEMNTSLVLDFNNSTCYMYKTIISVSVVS
T2 sequence (Q9JHF9 19-160): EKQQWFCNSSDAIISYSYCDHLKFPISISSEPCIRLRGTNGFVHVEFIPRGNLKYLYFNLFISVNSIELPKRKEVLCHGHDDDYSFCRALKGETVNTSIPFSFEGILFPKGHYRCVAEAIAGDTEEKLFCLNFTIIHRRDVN

TLR5 = TLR5 (Mus musculus, UniProt Q9JLF7); experiment: TLR multiplex sensor, EIS film resistance before/after exposure (Example 5), TLR5 sensor; conditions: exposure 20 minutes
Experimental: For each multiplex TLR sensor, 5 separate gold electrodes were used for binding TLR 1 to 5. The 5 modified electrodes/sensors were exposed to the analyte solution and evaluated one by one using potentiostats and electrochemical cells.
The preparation of each TLR biosensor was evaluated using EIS. It is understood that cyclic voltammetry as well as electrochemical impedance microscopy can also be used for monitoring the modification. […] Ethanolamine was then applied to deactivate unreacted LPA. Due to dissociation of unspecific absorbed TLR, the Rct dropped slightly. Experimental curves were evaluated using a model to obtain the Rct values, which can be seen at FIG. 9. Measurements from at least triplicated samples prepared were used to obtain statistic information.
The TLR1 sensor was exposed to an E. coli K12 whole-cell buffer solution for 20 minutes. The sensor was then removed, washed thoroughly and characterized in the electrochemical cell measuring the Rct again. The difference in Rct before and after exposure is the response triggered by the target. The same protocol was carried out for all remaining TLRs (TLRs 2-5) to obtain one set of pattern for E. coli K12 (FIGS. 10b to 10e). Multiple sets were investigated for statistical relevance. […]

Chain of TLR5 (Q9JLF7 27-859): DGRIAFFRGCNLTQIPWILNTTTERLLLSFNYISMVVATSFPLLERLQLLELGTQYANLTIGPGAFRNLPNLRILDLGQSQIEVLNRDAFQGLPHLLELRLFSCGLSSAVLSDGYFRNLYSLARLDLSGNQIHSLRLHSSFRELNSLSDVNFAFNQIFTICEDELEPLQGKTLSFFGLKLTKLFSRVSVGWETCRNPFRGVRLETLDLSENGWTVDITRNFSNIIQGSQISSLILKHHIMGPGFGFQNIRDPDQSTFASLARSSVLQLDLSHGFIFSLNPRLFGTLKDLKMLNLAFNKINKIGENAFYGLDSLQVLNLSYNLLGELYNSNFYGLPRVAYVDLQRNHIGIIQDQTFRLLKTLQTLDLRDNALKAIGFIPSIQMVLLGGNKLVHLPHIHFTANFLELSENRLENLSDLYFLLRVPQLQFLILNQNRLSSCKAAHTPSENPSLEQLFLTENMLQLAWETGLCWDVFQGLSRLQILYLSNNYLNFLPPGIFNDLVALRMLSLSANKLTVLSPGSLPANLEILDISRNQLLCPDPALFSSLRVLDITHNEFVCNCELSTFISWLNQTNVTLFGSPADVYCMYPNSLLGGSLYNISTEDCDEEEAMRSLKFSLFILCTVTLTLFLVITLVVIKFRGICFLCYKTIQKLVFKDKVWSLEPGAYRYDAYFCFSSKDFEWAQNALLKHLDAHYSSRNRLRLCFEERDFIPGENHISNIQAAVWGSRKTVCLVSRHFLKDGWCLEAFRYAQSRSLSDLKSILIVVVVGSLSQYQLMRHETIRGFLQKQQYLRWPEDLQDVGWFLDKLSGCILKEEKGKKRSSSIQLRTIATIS

Pam3CSK4
electrochemical response (selectivity test) (rmTLR3): slight signal variations
electrochemical response (selectivity test) (rmTLR4/MD-2): slight signal variations
delta Rct % (TLR5): limited responses
